Reference: ChEMBL document CHEMBL1151487, “DHPMP: a novel group I specific metabotropic glutamate receptor agonist” (Bioorg Med Chem Lett, 1996)

Columns and labels:
[1] = Compound was evaluated for its activity at group I mGluRs for the generation of [3H]inositol phosphate using [3H]inositol pre-labelled guinea-pig cerebral cortex slices.; type: tissue-based, Cavia porcellus
Cavia porcellus = species on record: Cavia porcellus; test: Compound was evaluated for inhibition of forskolin-stimulated cAMP generation at Group II and Group III mGluRs; type: functional

## N[C@H](C(=O)O)c1cc(O)cc(O)c1
[1]
  Log EC50: -4.9

## NC(c1cc(O)cc(O)c1)[PH](=O)O (stereo not drawn)
[1]
  Log EC50: -4.56
Cavia porcellus
  EC50: 2090 nM
